Columns and labels:
[1] = biological target: T1, CFTR (Homo sapiens, UniProt P13569); assay: Membrane Potential Dye, Enteroid Assay B; format: cell-based; conditions: for EC50: read-out: Ent. B EC50
Experimental: Base medium (ADF+++) consisted of Advanced DMEM/Ham's F12, 2 mM Glutamax, 10 mM HEPES, […] penicillin/streptomycin.
Bath 1 Buffer consisted of 1 mM MgCl2, 160 mM NaCl, 4.5 mM KCl, 10 mM HEPES, 10 mM Glucose, 2 mM CaCl2).
Chloride Free Buffer consisted of 1 mM Magnesium Gluconate, 2 mM Calcium Gluconate, 4.5 mM Potassium Gluconate, 160 mM Sodium Gluconate, 10 mM HEPES, 10 mM Glucose.
Bath 1 Dye Solution consisted of Bath 1 Buffer, 0.04% Pluronic F127, 20 μM Methyl Oxonol, 30 μM CaCCinh-A01, 30 μM Chicago Sky Blue.
Chloride Free Dye Solution consisted of Chloride Free Buffer, 0.04% Pluronic F127, 20 μM Methyl Oxonol, 30 μM CaCCinh-A01, 30 μM Chicago Sky Blue.
3. Enteroid Cell Harvesting and Seeding
Cells were recovered in cell recovery solution, collected by centrifugation at 650 rpm for 5 min at 4° C., resuspended in TryPLE and incubated for 5 min at 37° C. Cells were then collected by centrifugation at 650 rpm for 5 min at 4° C. and resuspended in IEMM containing 10 μM ROCK inhibitor (RI).
5. Membrane Potential Dye, Enteroid Assay B
Briefly, cells were washed 5 times in Bath 1 Buffer. Bath 1 Dye Solution was added and the cells were incubated for 25 min at room temperature. Following dye incubation, cells were washed 3 times in Chloride Free Dye Solution. Chloride transport was initiated by addition of Chloride Free Dye Stimulation Solution and the fluorescence signal was read for 15 min.

[2] = biological target: T1, CFTR; assay: Membrane Potential Dye, Enteroid Assay A; format: cell-based; conditions: for EC50: read-out: Ent. A EC50
How it was run: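 Enteroid cells were loaded with methyl oxonol membrane potential dye (plus CaCCinh-A01 and Chicago Sky Blue) for 25 min at room temperature. Chloride transport was started by switching to chloride-free gluconate stimulation solution, with fluorescence read for 15 min. Activity was expressed as % of a triple-combination CFTR modulator control (3 μM, 3 μM, 300 nM acute).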

T1 sequence (P13569 with tags, fused parts or gaps DEL508-508): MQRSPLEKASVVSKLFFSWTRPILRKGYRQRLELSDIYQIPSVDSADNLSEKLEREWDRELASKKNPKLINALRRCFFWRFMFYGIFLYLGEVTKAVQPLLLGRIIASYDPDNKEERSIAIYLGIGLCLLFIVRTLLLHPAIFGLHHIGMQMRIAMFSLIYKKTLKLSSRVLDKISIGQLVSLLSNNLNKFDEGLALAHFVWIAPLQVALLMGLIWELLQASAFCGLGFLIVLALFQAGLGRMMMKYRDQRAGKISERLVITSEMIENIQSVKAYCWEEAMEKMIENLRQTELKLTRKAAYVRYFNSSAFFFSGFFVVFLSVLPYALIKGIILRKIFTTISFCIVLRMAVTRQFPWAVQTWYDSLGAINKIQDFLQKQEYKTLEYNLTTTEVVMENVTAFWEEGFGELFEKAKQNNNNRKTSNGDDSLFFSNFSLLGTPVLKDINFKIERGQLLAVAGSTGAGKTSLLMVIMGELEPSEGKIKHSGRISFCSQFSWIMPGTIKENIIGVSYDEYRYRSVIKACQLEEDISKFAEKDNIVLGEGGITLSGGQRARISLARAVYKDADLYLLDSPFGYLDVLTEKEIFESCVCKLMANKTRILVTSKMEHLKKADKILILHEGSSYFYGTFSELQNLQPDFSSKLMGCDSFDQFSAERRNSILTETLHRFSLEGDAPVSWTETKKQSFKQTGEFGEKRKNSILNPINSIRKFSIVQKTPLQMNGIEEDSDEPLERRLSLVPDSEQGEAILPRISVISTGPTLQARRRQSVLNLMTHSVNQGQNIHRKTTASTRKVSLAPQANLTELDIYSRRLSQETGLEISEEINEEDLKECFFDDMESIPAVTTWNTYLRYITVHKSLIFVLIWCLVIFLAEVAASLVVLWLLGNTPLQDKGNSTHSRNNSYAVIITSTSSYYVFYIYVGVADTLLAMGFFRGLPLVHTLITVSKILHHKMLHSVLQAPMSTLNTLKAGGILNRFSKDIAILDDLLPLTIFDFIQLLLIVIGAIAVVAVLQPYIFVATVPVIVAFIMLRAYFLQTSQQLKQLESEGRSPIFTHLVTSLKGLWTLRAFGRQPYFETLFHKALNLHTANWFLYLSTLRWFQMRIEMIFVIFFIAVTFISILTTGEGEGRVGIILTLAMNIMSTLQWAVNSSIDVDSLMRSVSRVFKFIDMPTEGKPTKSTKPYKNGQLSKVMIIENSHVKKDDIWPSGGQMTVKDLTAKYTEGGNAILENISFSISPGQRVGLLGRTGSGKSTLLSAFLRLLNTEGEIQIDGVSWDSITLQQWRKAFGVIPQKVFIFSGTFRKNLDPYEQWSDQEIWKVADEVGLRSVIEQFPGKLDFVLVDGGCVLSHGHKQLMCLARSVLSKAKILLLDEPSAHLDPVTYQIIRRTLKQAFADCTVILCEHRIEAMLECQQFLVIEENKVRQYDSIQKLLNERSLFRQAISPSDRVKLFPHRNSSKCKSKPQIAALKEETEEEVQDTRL

Compound	Ent. B Max Activity ([1]; Table 9)	EC50 ([1]; Table 9) [nM]	other results
Cc1cccc(C)c1-c1cc2nc(n1)NS(=O)(=O)c1cccc(c1)C(=O)NCC(c1ccc(C3(C(F)(F)F)CC3)cc1)O2 (single isomer, unassigned) [Compound 11, 6-(2,6-Dimethylphenyl)-2,2-dioxo-10-[4-[1-(trifluoromethyl)cyclopropyl]phenyl]-9-oxa-2λ^6-thia-3,5,12,19-tetrazatricyclo[12.3.1.14,8]nonadeca-1(18),4(19),5,7,14,16-hexaen-13-one]			Ent. B Max Activity ([1]; Table 8): +++ (+++ is >60%); EC50 ([1]; Table 8): < 1000 nM; Ent. A Max Activity ([2]; Table 8): +++ (+++ is >60%); EC50 ([2]; Table 8): < 1000 nM
Cc1cccc(C)c1-c1cc2nc(n1)NS(=O)(=O)c1cccc(c1)C(=O)N[C@@H](C(CC(C)C)c1ccccc1)CO2 (stereo in doubt) [Compound 183]	+++ (+++ is >60%)	< 1000	Ent. A Max Activity ([2]; Table 9): +++ (+++ is >60%); EC50 ([2]; Table 9): < 1000 nM
Cc1cccc(C)c1-c1cc2nc(n1)NS(=O)(=O)c1cccc(c1)C(=O)NCC(CC(C)C)(CC(C)C)CO2 [Compound 496]	+++ (+++ is >60%)	< 1000	Ent. A Max Activity ([2]; Table 9): +++ (+++ is >60%); EC50 ([2]; Table 9): < 1000 nM
Cc1cccc(C)c1-c1cc2nc(n1)NS(=O)(=O)c1cccc(c1)C(=O)N[C@H](CC(C)C)[C@@H](c1ccc(C(C)(C)C)cc1)O2 (single isomer, unassigned) [Compound 40]	+++ (+++ is >60%)		Ent. A Max Activity ([2]; Table 9): +++ (+++ is >60%); EC50 ([2]; Table 9): < 1000 nM
Cc1cccc(C)c1-c1cc2nc(n1)NS(=O)(=O)c1cccc(c1)C(=O)N[C@@H]1CN(C3CCC4(CC3)CC4)C[C@H]1O2 [Compound 376]	++ (++ is 30-60%)	< 1000	Ent. A Max Activity ([2]; Table 9): +++ (+++ is >60%); EC50 ([2]; Table 9): < 1000 nM
Cc1cccc(C)c1-c1cc2nc(n1)NS(=O)(=O)c1cc(n[nH]1)C(=O)N[C@H](CC(C)C)CO2 [Compound 78, (10R)-15-(2,6-dimethylphenyl)-10-isobutyl-3,3-dioxo-12-oxa-3λ^6-thia-2,5,6,9,16,17-hexazatricyclo[11.3.1.14,7]octadeca-1(17),4(18),6,13,15-pentaen-8-one]	++ (++ is 30-60%)	3000 to 30000	Ent. A Max Activity ([2]; Table 9): ++ (++ is 30-60%); EC50 ([2]; Table 9): 3000 to 30000 nM
Cc1cccc(C)c1-c1cc2nc(n1)NS(=O)(=O)c1cccc(c1)C(=O)NCC(c1ccc(CCCO)cc1)O2 (stereo not drawn) [Compound 122]	+++ (+++ is >60%)	1000 to 3000	
Cc1cccc(C)c1-c1cc2nc(n1)NS(=O)(=O)c1cccc(c1)C(=O)N[C@@H]1CN(CCC(C)(C)C)C[C@H]1O2 [Compound 64, (3R,7R)-5-(3,3-Dimethylbutyl)-19-(2,6-dimethylphenyl)-2-oxa-15λ^6-thia-5,8,16,18,21-pentaazatetracyclo[15.3.1.110,14.03,7]docosa-1(20),10(22),11,13,17(21),18-hexaene-9,15,15-trione]	++ (++ is 30-60%)	< 1000	Ent. A Max Activity ([2]; Table 9): +++ (+++ is >60%); EC50 ([2]; Table 9): < 1000 nM
Cc1cccc(/C=C/C2CC2)c1-c1cc2nc(n1)NS(=O)(=O)c1cccc(c1)C(=O)N[C@H](CC(C)C)CO2 [Compound 53, (11R)-6-[2-[(E)-2-Cyclopropylvinyl]-6-methyl-phenyl]-11-isobutyl-2,2-dioxo-9-oxa-2λ^6-thia-3,5,12,19-tetrazatricyclo[12.3.1.14,8]nonadeca-1(18),4(19),5,7,14,16-hexaen-13-one]	+++ (+++ is >60%)	< 1000	
O=C1N[C@@H]2CCCCCCCCc3ccccc3-c3cc(nc(n3)NS(=O)(=O)c3cccc1c3)OC2 [Compound 37, (18R)-30-Oxa-26λ^6-thia-19,27,29,32-tetraazapentacyclo[16.11.2.13,28.121,25.04,9]tritriaconta-1,3(32),4(9),5,7,21(33),22,24,28-nonaene-20,26,26-trione]	+++ (+++ is >60%)	< 1000	
Cc1cccc(CCC(C)C)c1-c1cc2nc(n1)NS(=O)(=O)c1cccc(c1)C(=O)N[C@H](CC(C)C)CO2 [Compound 389]	+++ (+++ is >60%)	< 1000	
C=CCCCCCC[C@@H]1COc2cc(-c3c(C)cccc3C=C)nc(n2)NS(=O)(=O)c2cccc(c2)C(=O)N1 [Compound 215]	++ (++ is 30-60%)	< 1000	
Cc1cccc(C)c1-c1cc2nc(n1)NS(=O)(=O)c1cccc(c1)C(=O)N[C@H](C)[C@H](C)O2 [Compound 483]	+ (+ is <30%)	1000 to 3000	
Cc1cccc(C)c1-c1cc2nc(n1)NS(=O)(=O)c1cc(n(C)n1)C(=O)N[C@H](C)C(c1ccc(C(C)(C)C)cc1)O2 (stereo in doubt) [Compound 172]	++ (++ is 30-60%)	< 1000	
Cc1cccc(C)c1-c1cc2nc(n1)NS(=O)(=O)c1cccc(c1)C(=O)NC[C@H](CC(C)C)CO2 (stereo in doubt) [Compound 368]	++ (++ is 30-60%)	< 1000	
Cc1cccc(CC2CCCCC2)c1-c1cc2nc(n1)NS(=O)(=O)c1cccc(c1)C(=O)N[C@H](CC(C)C)CO2 [Compound 387]	+++ (+++ is >60%)	< 1000	
Cc1cccc(/C=C/C(C)C)c1-c1cc2nc(n1)NS(=O)(=O)c1cccc(c1)C(=O)N[C@H](CC(C)C)CO2 [Compound 390]	+++ (+++ is >60%)	< 1000	

Compound	Ent. B Max Activity ([1]; Table 9)	EC50 ([1]; Table 9) [nM]	other results
Cc1cccc(C)c1-c1cc2nc(n1)NS(=O)(=O)c1cccc(c1)C(=O)NC[C@H](c1ccc(C[Si](C)(C)C)cc1)O2 (stereo in doubt) [Compound 126]		< 1000	
Cc1cccc(C)c1-c1cc2nc(n1)NS(=O)(=O)c1cccc(c1)C(=O)N[C@H](CCC(C)(C)O)CO2 [Compound 67, (11R)-6-(2,6-Dimethylphenyl)-11-(3-hydroxy-3-methylbutyl)-2,2-dioxo-9-oxa-2λ^6-thia-3,5,12,19-tetrazatricyclo[12.3.1.14,8]nonadeca-1(18),4(19),5,7,14,16-hexaen-13-one]	+ (+ is <30%)	3000 to 30000	
Cc1cccc2c1-c1cc3nc(n1)NS(=O)(=O)c1cccc(c1)C(=O)N[C@H](CCCCCCCC2)CO3 [Compound 213]	+++ (+++ is >60%)	< 1000	
Cc1cccc(C)c1-c1cc2nc(n1)NS(=O)(=O)c1cccc(c1)C(=O)NC[C@H](c1ccc(CC[Si](C)(C)C)cc1)O2 (stereo in doubt) [Compound 123]		< 1000	
O=C1N[C@@H]2CCCCCCCc3ccccc3-c3cc(nc(n3)NS(=O)(=O)c3cccc1c3)OC2 [Compound 217]	+++ (+++ is >60%)	< 1000	
Cc1cccc(O)c1-c1cc2nc(n1)NS(=O)(=O)c1cccc(c1)C(=O)N[C@H](CC(C)C)CO2 [Compound 163]	++ (++ is 30-60%)	3000 to 30000	
O=C1N[C@@H]2CCCCC/C=C/c3ccccc3-c3cc(nc(n3)NS(=O)(=O)c3cccc1c3)OC2 [Compound 218]	+++ (+++ is >60%)	< 1000	
Cc1cccc(C)c1-c1cc2nc(n1)NS(=O)(=O)c1cccc(c1)C(=O)NC[C@@H](CC(C)C)CO2 (stereo in doubt) [Compound 367]	+++ (+++ is >60%)	< 1000	
C=CCCCC[C@@H]1COc2cc(-c3ccccc3C=C)nc(n2)NS(=O)(=O)c2cccc(c2)C(=O)N1 [Compound 221]	+++ (+++ is >60%)	< 1000	
Cc1cccc(C)c1-c1cc2nc(n1)NS(=O)(=O)c1cccc(c1)C(=O)NC[C@H](c1ccc(CC[Si](C)(C)C)cc1)O2 (stereo in doubt) [Compound 124]		< 1000	
Cc1cccc(C)c1-c1cc2nc(n1)NS(=O)(=O)c1cccc(c1)C(=O)N[C@H](C)[C@H](C)O2 [Compound 484]	++ (++ is 30-60%)	3000 to 30000	
Cc1cccc(CCC2CC2)c1-c1cc2nc(n1)NS(=O)(=O)c1cccc(c1)C(=O)N[C@H](CC(C)C)CO2 [Compound 391]	+++ (+++ is >60%)	< 1000	
CC(C)C[C@@H]1COc2cc(C3(C)CC3)nc(n2)NS(=O)(=O)c2cccc(c2)C(=O)N1 [Compound 164]	+ (+ is <30%)		
Cc1cccc(C)c1-c1cc2nc(n1)NS(=O)(=O)c1cc(n(C)n1)C(=O)N[C@H](CC(C)(C)C)CO2 [Compound 358]	+++ (+++ is >60%)	< 1000	
Cc1cccc(C)c1-c1cc2nc(n1)NS(=O)(=O)c1cc(no1)C(=O)N[C@H](CC(C)(C)C)CO2 [Compound 357]	++ (++ is 30-60%)	1000 to 3000	
Cc1cccc(C)c1-c1cc2nc(n1)NS(=O)(=O)c1cc(n(C)n1)C(=O)NCC(CC(C)C)(CC(C)C)CO2 [Compound 173]	++ (++ is 30-60%)	1000 to 3000	

Reference: patent US20230382924A1, “MODULATORS OF CYSTIC FIBROSIS TRANSMEMBRANE CONDUCTANCE REGULATOR” (VERTEX PHARMACEUTICALS INCORPORATED, priority 2020, published 2023)
